Experiment [1] addresses T1, His-mCvNTRC (mature C. vulgaris NTRC) (Chlorella vulgaris, UniProt B9ZYY5).
T1 construct: gene CvNTR-C; mature form (NTR domain plus C-terminal Trx domain) without transit peptide, C-terminal His-tag, pET-29b(+), E. coli BL21(DE3)pLysS
T1 sequence (B9ZYY5 58-529): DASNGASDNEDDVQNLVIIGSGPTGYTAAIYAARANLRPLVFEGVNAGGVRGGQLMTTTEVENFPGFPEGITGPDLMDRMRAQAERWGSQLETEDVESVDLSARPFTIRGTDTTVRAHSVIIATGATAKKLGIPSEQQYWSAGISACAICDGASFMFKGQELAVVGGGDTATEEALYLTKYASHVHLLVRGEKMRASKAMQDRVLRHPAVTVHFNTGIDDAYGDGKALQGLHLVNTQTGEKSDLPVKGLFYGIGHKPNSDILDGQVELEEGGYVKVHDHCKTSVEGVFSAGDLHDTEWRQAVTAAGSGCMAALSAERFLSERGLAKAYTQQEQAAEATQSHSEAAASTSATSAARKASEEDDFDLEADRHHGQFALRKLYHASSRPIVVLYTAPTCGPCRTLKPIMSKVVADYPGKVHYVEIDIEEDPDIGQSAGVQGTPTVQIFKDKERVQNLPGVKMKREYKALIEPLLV
The experiment can be described thus: NADPH oxidation at […] nm, coupled to His-mCvPrx and peroxide. Type of experiment: biochemical. Conditions: 300 uM NADPH, 100 uM peroxide, 4.0 uM His-mCvNTRC, 4.0 uM His-mCvPrx, 1 mM EDTA, 50 mM Na-phosphate pH 7.0.

In experiment [2] the target is T2, His-mCvPrx (mature C. vulgaris 2-Cys Prx) (Chlorella vulgaris, UniProt K4PW22).
T2 construct: mature form without predicted chloroplast transit peptide, bp 161-745 of cDNA, 194 residues of 239 (46-239 if ORF starts at bp 26); His-tagged, pTrc99A, E. coli JM109, five synonymous rare-codon changes
T2 sequence (K4PW22 46-239): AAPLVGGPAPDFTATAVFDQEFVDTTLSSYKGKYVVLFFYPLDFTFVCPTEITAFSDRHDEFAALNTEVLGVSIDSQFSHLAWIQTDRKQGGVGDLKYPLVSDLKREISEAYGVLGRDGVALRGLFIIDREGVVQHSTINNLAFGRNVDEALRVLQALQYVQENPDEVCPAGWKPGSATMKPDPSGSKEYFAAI
The experiment can be described thus: NADPH oxidation at […] nm, reconstituted with His-mCvNTRC. It counts as biochemical. Conditions: 300 uM NADPH, 4.0 uM His-mCvPrx, 4.0 uM His-mCvNTRC as reductant, 1 mM EDTA, 50 mM Na-phosphate pH 7.0.

Consider `NC(=O)C1=CN([C@@H]2O[C@H](COP(=O)(O)OP(=O)(O)OC[C@H]3O[C@@H](n4cnc5c(N)ncnc54)[C@H](OP(=O)(O)O)[C@@H]3O)[C@@H](O)[C@H]2O)C=CC1` [NADPH], for which the specific activity entry in experiment [1] is listed as “the mCvNTRC/mCvPrx system used NADPH as a specific coenzyme to reduce peroxides”.

Regarding `O=NOO` [peroxynitrite], in experiment [2] (100 uM peroxynitrite), the specific activity entry was “the mCvNTRC/mCvPrx antioxidant system could decompose ONOO^−”.

Turning to `CC(C)(C)OO` [tert-butyl hydroperoxide], the specific activity result in experiment [2] (100 uM t-BOOH) is “a remarkably high rate of NADPH oxidation against both H2O2 and t-BOOH”.

For the origin of these results see paper PMC3454380, “Chloroplast NADPH-Dependent Thioredoxin Reductase from Chlorella vulgaris Alleviates Environmental Stresses in Yeast Together with 2-Cys Peroxiredoxin” (PLoS ONE, 2012).
